# In patent US5912235A, “10, 13, 15-trioxatricyclo [9.2.1.1.^9.6 ]-pentadecan one derivatives, method for their production and pharmaceutical compositions containing them” (Solvay Pharmaceuticals GmbH, priority 1996, dated 1999):
# Legend:
# stomach tone = test: In vivo determination of the effect of the substances on the stomach tone (barostat, stomach volume at constant pressure after lipid intake); details: beagles; maximum tolerable dose; stomach volume measured at constant pressure with barostat
# Experimental: 2. In vivo determination of the effect of the substances on the stomach tone.
# The stomach tone plays an important role in gastric emptying. An increased stomach tone contributes to an increased rate of gastric emptying.
# The influence of substances on the stomach tone is determined on beagles with the aid of a barostat which is connected to a plastic pouch in the stomach of the dog and permits measurement of volume or pressure in the stomach of the dog. With the barostat, the stomach volume is determined at a constant pressure in the stomach or the stomach pressure is determined at a constant volume in the stomach. When the stomach tone increases, a reduced stomach volume is detected at a given pressure, and an increased pressure at a given volume. In the test model used to investigate the increase in stomach tone effected by the substances, the change in stomach volume caused by the substances is measured at constant pressure. The stomach of the test animals is relaxed by intake of lipids, i.e. the stomach tone decreases, which causes the stomach volume to increase correspondingly. The reduction in % of the stomach volume which has been increased by administration of lipids which occurs after intake of the substance due to a re-increase in stomach tone is measured as a measurement of the stomach tone-increasing action of the substances.
# motilin receptors = biological target: T1, motilin receptors (Oryctolagus cuniculus, UniProt G1T803); test: Determination of the binding capacity of the test substances to motilin receptors (displacement of 125-iodine-labelled motilin, crude membrane preparation from rabbit antrum); details: tissue homogenate fraction from rabbit antrum; iodinated motilin 50 pM; 30° C., 60 min; read-out: pIC50 value (50% inhibition of the specific binding of the iodinated motilin to the motilin receptors) (converted)
# T1 construct: fraction of a tissue homogenate from rabbit antrum; from tissue; host or cells: rabbit antrum, mucosa removed, crude membrane preparation
# Experimental: 1. Determination of the binding capacity of the test substances to motilin receptors.
# The affinity of the compounds of Formula I for motilin receptors is measured in vitro on a fraction of a tissue homogenate from rabbit antrum. The displacement of radioactively labelled iodinated motilin from motilin receptor binding by the test substances is determined.
# The receptor binding studies are carried out by a modification of the method of Borman et al. (Regulatory Peptides, 15:143-153 (1986). To prepare the ^125 iodine-labelled motilin, motilin is iodinated enzymatically using lactoperoxidase in known manner, for example in analogy to the method described by Bloom et al., Scand. J. Gastroenterol.,11:47-52 (1976). […]
# For the binding test, 200 μl of the crude membrane fraction (0.5-1 mg of protein) in 400 μl of a buffer solution A (50 mM tris-HCl buffer, 1.5% BSA, 10 mM MgCl2, pH 8.0) are incubated with 100 μl of iodinated motilin diluted in buffer solution B (10 mM tris-HCl buffer, 1% BSA, pH 8) (final concentration 50 pM) at 30° C. for 60 min. […] The residue obtained as pellet after the centrifugation is washed with buffer solution B and counted in a gamma counter. […] From this the corresponding pIC50 value is calculated.
# T1 sequence (G1T803 1-400): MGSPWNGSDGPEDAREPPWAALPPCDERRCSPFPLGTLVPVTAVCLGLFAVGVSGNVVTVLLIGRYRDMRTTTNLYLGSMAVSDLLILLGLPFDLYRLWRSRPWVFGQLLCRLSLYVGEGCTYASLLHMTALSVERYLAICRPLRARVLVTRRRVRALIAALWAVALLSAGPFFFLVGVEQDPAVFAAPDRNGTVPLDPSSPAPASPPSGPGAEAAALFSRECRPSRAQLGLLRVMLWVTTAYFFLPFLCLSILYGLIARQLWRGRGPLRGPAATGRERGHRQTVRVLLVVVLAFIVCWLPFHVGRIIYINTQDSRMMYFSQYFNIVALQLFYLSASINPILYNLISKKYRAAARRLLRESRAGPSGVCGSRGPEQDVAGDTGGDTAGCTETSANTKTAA
structure (smiles),measurement,setting,value
"CC[C@@H](O)[C@@]1(C)O[C@]23O[C@](C)(CC2C)[C@H](O[C@@H]2O[C@H](C)C[C@H](N(C)C(C)C)[C@H]2O)[C@@H](C)[C@H](O[C@H]2C[C@@](C)(OC)[C@@H](O)[C@H](C)O2)[C@@H](C)C(=O)O[C@@H]1[C@H]3C (stereo partly drawn) [Example 1, [(1'R),2R,3S,4S,5R,6R,9R,11R,12R,14R]-11-(1'-hydroxypropyl)-3-[(2,6-dideoxy-3-C-methyl-3-0-methyl-α-L-ribohexopyranosyl)-oxy]-5-[(3,4,6-trideoxy-3-(N-methyl-N-isopropylamino)-β-D-xylo-hexopyranosyl)-oxy]-2,4,6,8,11,14-hexamethyl-10,13,15-trioxatricyclo[9.2.1.1^9.6]-pentadecan-1-one]",reduction in the stomach volume increased after lipid administration,stomach tone,69%
same,IC50,motilin receptors,14.1 nM
